Measured values reported in patent publication US5177102A, “Polyisoprene compounds and salts thereof” (Sanwa Kagaku Kenkyusho Co., Ltd., priority 1990, dated 1993).
Like-named read-outs stand apart in the source and are kept apart here.

Tested on: stress-induced gastric ulcer
Assay: Anti-ulcer activity: water-immersion restraint stress-induced gastric ulcer in rats, oral (procedure of Takagi et al.)
Type: in vivo, Male Sprague-Dawley rats
Conditions: for ED50: read-out: ED50 (dose of test compound which gives 50% inhibition)
Description: Some polyisoprene compounds according to the invention were tested to evaluate their anti-ulcer activity in comparison with Teprenone and Gefarnate as controls, in accordance with the procedure proposed by Takagi et al ["Japan. J. Pharmacol.", Vol. 18, page 9 (1968)].
Male Sprague-Dawley rats were used, each having the body weight of 183.9 to 234.5 g. The animals were deprived of food for 24 hours prior to the test. They were immobilized in a restraint cage and immersed for 7 hours to the height of the xiphoid process in a water-bath kept at 23°±1° C. After inflation with 10 ml of 1% formalin, the isolated stomach was opened along the greater curvature. The ulcer index was determined as the sum of length (mm) of each erosion per rat. The compounds were administered orally 30 minutes before the restraint.
Results are shown in following Table 1 in terms of percent inhibition of anti-ulcer activity. In the Table, ED50 represents the dose of test compound which gives 50% inhibition.

[1] = oral, 30 minutes before restraint, rat, read-out: Inhibition (percent inhibition, ulcer index)
[2] = oral, 30 minutes before restraint, rat
[3] = Rattus norvegicus, po, read-out: Inhibition (percent inhibition, ulcer index)

| Structure (SMILES) | inhibition in vivo at 12.5 mg/kg [1] | inhibition in vivo at 25 mg/kg [1] | inhibition in vivo at 50 mg/kg [1] | ED50 [2] | ED50 (Rattus norvegicus, po) | inhibition in vivo at 100 mg/kg [3] | inhibition in vivo at 200 mg/kg [3] | inhibition in vivo at 400 mg/kg [3] | inhibition in vivo at 100 mg/kg (100 mg/kg, oral, 30 minutes before restraint, rat, read-out: Inhibition (percent inhibition, ulcer index)) |
| --- | --- | --- | --- | --- | --- | --- | --- | --- | --- |
| CC(C)=CCCC(C)=CCCC(C)=CCCC(C)=CCCC(C)=CCCC(C)=CCCC(C)=CCCC(C)=CCCC(C)=CCSCCN [Example 1, 2-(3,7,11,15,19,23,27,31,35-Nonamethyl-2,6,10,14,18,22,26,30,34-hexatriacontanonaen-1-ylthio)ethylamine] | -3.1% | 39.7% | 55.1% | 39.7 mg/kg | – | – | – | – | – |
| CC(=CCSCCN)CCCC(C)CCCC(C)CCCC(C)C (stereo not drawn) [Example 2, 2-(3,7,11,15-Tetramethyl-2-hexadecaen-1-ylthio)ethylamine] | 9% | 45% | 69% | 30.8 mg/kg | – | – | – | – | – |
| CC(C)=CCCC(C)=CCSCCN [Example 3, 2-(3,7-Dimethyl-2,6-octadien-1-ylthio)ethylamine] | – | – | 13.3% | > 50 mg/kg | – | – | – | – | – |
| CC(C)=CCCC(C)=CCCC(C)=CCCC(C)=CCCC(C)=CCCC(C)=CCCC(C)=CCCC(C)=CCCC(C)=CCCC(C)=CCSCCN [Example 4, 2-(3,7,11,15,19,23,27,31,35,39-Decamethyl-2,6,10,14,18,22,26,30,34,38-tetracontadecaen-1-ylthio)ethylamine] | 11.1% | 24.2% | 44.4% | > 50 mg/kg | – | – | – | – | – |
| CC(C)=CCCC(C)=CCCC(C)=CCCC(C)=CCSCCN [Example 5, 2-(3,7,11,15-Tetramethyl-2,6,10,14-hexadecatetraen-1-ylthio)ethylamine] | -2.8% | 57.4% | 88% | 21.1 mg/kg | – | – | – | – | – |
| CC(C)=CCCC(C)=CCCC(C)=CCSCCN [Example 6, 2-(3,7,11-Trimethyl-2,6,10-dodecatrien-1-ylthio)ethylamine] | – | – | 15.4% | > 50 mg/kg | – | – | – | – | – |
| CNC(=C[N+](=O)[O-])NCCSCC=C(C)CCC=C(C)CCC=C(C)CCC=C(C)C [Example 7, 2-Methylamino-1-nitro-2-[2-(3,7,11,15-tetramethyl-2,6,10,14-hexadecatetraen-1-ylthio)ethylamino]ethylene] | -7% | 23.8% | 67.8% | 37.4 mg/kg | – | – | – | – | – |
| CC(C)=CCCC(C)=CCCC(C)=CCCC(C)=CCCC(C)=CCCC(C)=CCCC(C)=CCCC(C)=CCCC(C)=CCCC(C)=CCNCC12CCCN1CCC2 [Example 8, 5-{[(3,7,11,15,19,23,27,31,35,39-Decamethyl-2,6,10,14,18,22,26,30,34,38-tetracontadecaen-1-yl)amino]methyl}-1-azabicyclo[3.3.0]octane] | – | – | 10.3% | > 50 mg/kg | – | – | – | – | – |
| CC(C)=CCCC(C)=CCCC(C)=CCCC(C)=CCNCC12CCCN1CCC2 [Example 9, 5-{[(3,7,11,15-Tetramethyl-2,6,10,14-hexadecatetraen-1-yl)amino]methyl}-1-azabicyclo[3.3.0]octane] | 38.4% | 67.9% | 84.9% | 16.6 mg/kg | – | – | – | – | – |
| CC(C)=CCCC(C)=CCCC(C)=CCCC(C)=CCCC(C)=CCCC(C)=CCCC(C)=CCCC(C)=CCCC(C)=CCCC(C)=CCSCCNC(=O)CC12CCCN1CCC2 [Example 10, N-[2-(3,7,11,15,19,23,27,31,35,39-Decamethyl-2,6,10,14,18,22,26,30,34,38-tetracontadecaen-1-ylthio)ethyl]-(1-azabicyclo[3.3.0]octan-5-yl)acetamide] | 27.3% | 33.9% | – | > 50 mg/kg | – | – | – | – | – |
| CC(C)=CCCC(C)=CCCC(C)=CCCC(C)=CCSCCNC(=O)CC12CCCN1CCC2 [Example 11, N-[2-(3,7,11,15-Tetramethyl-2,6,10,14-hexadecatetraen-1-ylthio)ethyl]-(1-azabicyclo[3.3.0]octan-5-yl)acetamide] | 9.4% | 51% | 68.5% | 26 mg/kg | – | – | – | – | – |
| CC(C)=CCCC(C)=CCCC(C)=CCCC(C)=CCN(CC=C(C)CCC=C(C)CCC=C(C)CCC=C(C)C)CC12CCCN1CCC2 [Example 12, 5-{[Bis(3,7,11,15-tetramethyl-2,6,10,14-hexadecatetraen-1-yl)amino]methyl}-1-azabicyclo[3.3.0]octane] | 21.5% | 50% | – | ≥ 25 mg/kg | – | – | – | – | – |
| CC(C)=CCC/C(C)=C/CC/C(C)=C/CCC(=O)OC/C=C(\C)CCC=C(C)C [Gefarnate, reference compound] | – | – | – | – | 387 mg/kg | 24.6% | 19.2% | 51.5% | – |
| CC(=O)CCC=C(C)CCC=C(C)CCC=C(C)CCC=C(C)C [Teprenone, reference compound] | – | 0% | 9.4% | > 100 mg/kg | – | – | – | – | 48.3% |
